# Measurements taken from ChEMBL document CHEMBL1201862, “PubChem BioAssay data set” (2004).
# Active and inactive are the calls of the source.
# How the values were obtained:
# [1] = inhibitors of firefly luciferase expression or activity, dose response, H4 neuroglioma cells, luminescence (AID 1990); format: functional, cell-based
# [2] = biological target: T1, DNA repair and recombination protein RAD54-like (Homo sapiens, UniProt Q92698); assay: inhibitors of human RAD54 branch migration, confirmation, biochemical, fluorescence, cherry-picked samples, dose series (AID 651657); format: functional
# T1 sequence (Q92698 whole entry): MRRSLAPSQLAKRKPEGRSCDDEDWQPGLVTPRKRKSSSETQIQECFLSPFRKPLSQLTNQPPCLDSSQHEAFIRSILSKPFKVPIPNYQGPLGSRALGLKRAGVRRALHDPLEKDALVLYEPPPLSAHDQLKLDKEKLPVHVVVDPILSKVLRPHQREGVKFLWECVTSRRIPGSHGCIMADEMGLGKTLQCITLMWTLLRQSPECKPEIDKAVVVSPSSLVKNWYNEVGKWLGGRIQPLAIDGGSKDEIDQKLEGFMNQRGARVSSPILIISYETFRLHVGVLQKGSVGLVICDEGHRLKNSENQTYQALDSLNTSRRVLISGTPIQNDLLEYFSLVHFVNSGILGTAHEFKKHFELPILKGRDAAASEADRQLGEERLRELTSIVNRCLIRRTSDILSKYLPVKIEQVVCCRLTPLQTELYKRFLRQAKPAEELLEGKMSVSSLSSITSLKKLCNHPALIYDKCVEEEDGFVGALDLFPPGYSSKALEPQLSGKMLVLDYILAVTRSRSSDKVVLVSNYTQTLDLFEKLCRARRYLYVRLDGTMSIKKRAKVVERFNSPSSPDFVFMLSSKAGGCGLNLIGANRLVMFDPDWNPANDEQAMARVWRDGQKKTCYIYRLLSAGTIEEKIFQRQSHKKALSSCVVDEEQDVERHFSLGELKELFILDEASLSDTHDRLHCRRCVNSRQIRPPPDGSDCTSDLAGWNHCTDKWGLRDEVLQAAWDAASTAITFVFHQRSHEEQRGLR
# [3] = biological target: T2, Sentrin-specific protease 8 (Homo sapiens, UniProt Q96LD8); format: functional;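 further: luminescence read-out of SENP8 inhibition, dose-response confirmation following an ultra-high-throughput screen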
# T2 sequence (Q96LD8 whole entry): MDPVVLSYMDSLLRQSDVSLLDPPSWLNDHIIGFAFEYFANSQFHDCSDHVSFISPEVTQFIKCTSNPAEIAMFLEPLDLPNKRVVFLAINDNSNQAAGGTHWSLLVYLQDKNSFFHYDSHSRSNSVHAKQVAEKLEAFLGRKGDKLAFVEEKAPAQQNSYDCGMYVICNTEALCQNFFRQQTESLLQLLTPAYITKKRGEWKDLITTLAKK
# [4] = biological target: T3, Sentrin-specific protease 6 (Homo sapiens, UniProt Q9GZR1); format: functional;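 further: Luminescence-based dose-response confirmatory assay of SENP6 inhibition, following up an ultra-high-throughput screen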
# T3 sequence (Q9GZR1 whole entry): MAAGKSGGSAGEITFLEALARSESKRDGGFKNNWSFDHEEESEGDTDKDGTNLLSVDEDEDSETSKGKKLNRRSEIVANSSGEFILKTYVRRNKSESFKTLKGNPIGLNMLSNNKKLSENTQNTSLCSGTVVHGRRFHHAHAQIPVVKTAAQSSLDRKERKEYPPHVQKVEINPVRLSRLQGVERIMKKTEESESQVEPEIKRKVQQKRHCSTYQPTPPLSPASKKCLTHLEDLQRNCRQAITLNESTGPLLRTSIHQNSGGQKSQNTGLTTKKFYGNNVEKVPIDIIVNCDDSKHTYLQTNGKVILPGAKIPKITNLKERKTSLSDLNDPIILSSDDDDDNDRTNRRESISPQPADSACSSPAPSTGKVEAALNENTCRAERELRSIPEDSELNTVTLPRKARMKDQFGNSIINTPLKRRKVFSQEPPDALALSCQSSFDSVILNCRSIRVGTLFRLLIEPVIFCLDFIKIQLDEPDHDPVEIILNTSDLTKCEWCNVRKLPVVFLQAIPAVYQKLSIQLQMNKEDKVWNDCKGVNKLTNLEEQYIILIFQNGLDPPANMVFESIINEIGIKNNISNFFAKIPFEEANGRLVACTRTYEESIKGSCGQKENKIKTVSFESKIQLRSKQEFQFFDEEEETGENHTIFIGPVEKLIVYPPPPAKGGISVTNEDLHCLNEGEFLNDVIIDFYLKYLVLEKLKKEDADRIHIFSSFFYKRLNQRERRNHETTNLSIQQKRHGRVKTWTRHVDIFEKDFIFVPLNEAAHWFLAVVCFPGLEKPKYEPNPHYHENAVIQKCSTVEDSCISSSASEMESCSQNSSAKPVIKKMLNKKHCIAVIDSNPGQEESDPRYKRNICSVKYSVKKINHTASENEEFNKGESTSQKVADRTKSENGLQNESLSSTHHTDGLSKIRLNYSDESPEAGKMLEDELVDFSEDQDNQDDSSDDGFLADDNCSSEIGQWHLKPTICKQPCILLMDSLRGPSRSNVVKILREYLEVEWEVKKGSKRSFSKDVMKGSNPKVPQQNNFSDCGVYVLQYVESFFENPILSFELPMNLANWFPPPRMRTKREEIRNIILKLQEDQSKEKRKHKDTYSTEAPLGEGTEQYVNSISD
SMILES,EC50 [1],AC50 [2],IC50 [3],IC50 [4]
CCOC(=O)c1c(-c2ccc(-c3ccccc3)cc2)csc1NC(=O)CNCCN(C)C,> 120 µM (not active),68 µM (active),–,–
N#Cc1c(NC(=O)c2ccc(Br)o2)n(-c2ccccc2)c2nc3ccccc3nc12,–,–,4.55 µM (active),2.03 µM (active)
